# Like-named read-outs stand apart in the source and are kept apart here.
# Legend:
# MT-2 human T-cells = experiment: Cytotoxicity: inhibition of MT-2 cell growth; type: cell-based
# Description: (§1) The preparation of the analogues 4a-h involved the reaction between 2-bromothiazole 1 with the corresponding 5-amino-2-R-phenol 2, followed by reaction with 4-bromo-2-methyl-2-butene in presence of Cs2CO3 as a base (Scheme 1; see Table 1 for antiviral activities (EC50) and cytotoxicities (IC50) of these compounds, as determined using human MT-2 cells infected with IIIB strain of HIV-1).
# (§2) See, Ruiz-Caro, supra. and Lin, et al., Biochem. Pharmacol. 1994, 47, 171-174.
# IIIB strain of HIV-1 = experiment: Anti-HIV-1 activity: protection of infected MT-2 cells, MTT colorimetric method; type: cell-based; details: for fold lower potency (higher EC50) than the corresponding DMA ether: Table 2b compounds
# [1] = Cytotoxicity: inhibition of MT-2 cell growth; type: cell-based, human; details: human, MT-2 T-cells; Table 2b; MT-2 cells
# Description: as §1, §2
# [2] = Table 1B, for 50% inhibition of MT-2 cell growth, triplicate samples
# [3] = Table 1B, for 50% protection in MT-2 cells, triplicate samples, NA for EC50 > CC50, read-out: EC50
# [4] = Human immunodeficiency virus 1, IIIB, MT2
# [5] = Homo sapiens, MT2, Table 1a, cytotoxicity, MT-2 cells, read-out: IC50
# [6] = Human immunodeficiency virus 1, IIIB, MT2, Table 1a, heteroaryl derivatives, N/A read as no activity, read-out: EC50
# [7] = Homo sapiens, MT2, Table of bicyclic-heteroaryl phenyl amines, cytotoxicity, MT-2 cell assays, read-out: IC50
# [8] = Human immunodeficiency virus 1, IIIB, MT2, Table of bicyclic-heteroaryl phenyl amines, MT-2 cell assays, read-out: EC50
# [9] = Table 1, cytotoxicity, MT-2 cells, read-out: IC50
# [10] = Table 1a, cytotoxicity, MT-2 cells, read-out: IC50
# [11] = Table 1, compounds 4a-h, human MT-2 cells infected with IIIB strain of HIV-1, N/A read as no activity, read-out: EC50
# [12] = Table 1a, heteroaryl derivatives, N/A read as no activity, read-out: EC50
# [13] = Table 2b, derivatives of pyrimidine 11, NA for EC50 > CC50, read-out: EC50
# [14] = Human immunodeficiency virus 1, IIIB, MT2, read-out: EC50
# [15] = Table of bicyclic-heteroaryl phenyl amines, cytotoxicity, MT-2 cell assays, read-out: IC50
# [16] = Table of bicyclic-heteroaryl phenyl amines, MT-2 cell assays, read-out: EC50
compound,measurement,setting,value
COc1nc(Nc2ccc(C#N)c(OCC=C(C)C)c2)nc(OC)n1 [Compound 8h],CC50,MT-2 human T-cells; [2],> 100000 nM
same,EC50,IIIB strain of HIV-1; [3],22 nM
COc1nc(Nc2ccc(Cl)c(OCC=C(C)C)c2)nc(OC)n1 [Compound 7h],CC50,MT-2 human T-cells; [2],20000 nM
same,EC50,IIIB strain of HIV-1; [3],290 nM
CNc1ncnc(Nc2ccc(Cl)c(OCC=C(C)C)c2)n1 [Compound 7d],CC50,MT-2 human T-cells; [2],3100 nM
same,EC50,IIIB strain of HIV-1; [3],31 nM
"CC(C)=CCOc1cc(Nc2nc(CO)cs2)ccc1C [Compound 10b, (2-(4-Methyl-3-(3-methylbut-2-enyloxy)phenylamino)thiazol-4-yl)methanol]",IC50,"MT-2 human T-cells; Homo sapiens, MT2",23000 nM
same,EC50,IIIB strain of HIV-1; [4],13000 nM
COc1ncnc(Nc2ccc(Cl)c(OCC=C(C)C)c2)n1 [Compound 7b],CC50,MT-2 human T-cells; [2],18000 nM
same,EC50,IIIB strain of HIV-1; [3],31 nM
"CC(C)=CCOc1cc(Nc2ncccn2)ccc1C [Compound 39b, N-(4-Methyl-3-(3-methylbut-2-enyloxy)phenyl)pyrimidin-2-amine]",IC50,MT-2 human T-cells; [5],78000 nM
same,EC50,IIIB strain of HIV-1; [6],2800 nM
CC(C)=CCOc1cc(Nc2nccc3occc23)ccc1Cl [compound 54],IC50,MT-2 human T-cells; [7],25000 nM
same,EC50,IIIB strain of HIV-1; [8],6 nM
CSc1ncnc(Nc2ccc(C#N)c(OCC=C(C)C)c2)n1 [Compound 8i],CC50,MT-2 human T-cells; [2],8400 nM
same,EC50,IIIB strain of HIV-1; [3],5 nM
"COc1ccc(Nc2nc(CO)cs2)cc1OCC=C(C)C [Compound 10c, (2-(4-Methoxy-3-(3-methylbut-2-enyloxy)phenylamino)thiazol-4-yl)methanol]",IC50,"MT-2 human T-cells; Homo sapiens, MT2",80000 nM
same,EC50,IIIB strain of HIV-1; [4],9000 nM
"CC(C)=CCOc1cc(Nc2nccs2)ccc1C#N [Compound 4h, N-(4-cyano-3-(3-methylbut-2-enyloxy)phenylthiazol)-2-amine]",IC50,MT-2 human T-cells; [9],750 nM
same,IC50,MT-2 human T-cells; [10],750 nM
same,EC50,IIIB strain of HIV-1; [11],210 nM
same,EC50,IIIB strain of HIV-1; [12],210 nM
C/C=C/COc1cc(Nc2nccc(OC)n2)ccc1Cl [Compound 11c],CC50,"MT-2 human T-cells; Table 2b, MT-2 cells",17000 nM
same,fold lower potency (higher EC50) than the corresponding DMA ether,IIIB strain of HIV-1,ca. 10 fold
same,EC50,IIIB strain of HIV-1; [13],89 nM
"CC(C)=CCOc1cc(Nc2nccc(C)n2)ccc1Cl [Compound 41d, N-(4-Chloro-3-(3-methylbut-2-enyloxy)phenyl)-4-methylpyrimidin-2-amine]",IC50,MT-2 human T-cells; [5],< 200 nM
same,CC50,MT-2 human T-cells; [2],150 nM
same,EC50,IIIB strain of HIV-1; [14],39 nM
CC(C)=CCOc1cc(Nc2nc(C)nc(Cl)n2)ccc1Cl [Compound 7e],CC50,MT-2 human T-cells; [2],40000 nM
same,EC50,IIIB strain of HIV-1; [3],12000 nM
"O=C1Nc2ccc(Cl)cc2[C@@](C#CC2CC2)(C(F)(F)F)O1 [Efavirenz, efavirenz, reference compound]",IC50,MT-2 human T-cells; [7],> 100 nM
same,CC50,MT-2 human T-cells; [2],> 100 nM
same,EC50,IIIB strain of HIV-1; [14],2 nM
CSc1ccnc(Nc2ccc(Cl)c(OCC=C(C)C)c2)n1 [Compound 9i],CC50,MT-2 human T-cells; [2],2800 nM
same,EC50,IIIB strain of HIV-1; [3],18 nM
C/C=C/COc1cc(Nc2ncccn2)ccc1Cl [Compound 11a],CC50,"MT-2 human T-cells; Table 2b, MT-2 cells",31000 nM
same,fold lower potency (higher EC50) than the corresponding DMA ether,IIIB strain of HIV-1,ca. 10 fold
same,EC50,IIIB strain of HIV-1; [13],2300 nM
CC(C)=CCOc1cc(Nc2nccc3ccoc23)ccc1Cl [furopyridine 56a],IC50,MT-2 human T-cells; [15],21000 nM
same,EC50,IIIB strain of HIV-1; [16],80 nM
CC(C)=CCOc1cc(Nc2nccc3ccccc23)ccc1Cl [isoquinoline 62a],IC50,MT-2 human T-cells; [15],19000 nM
same,EC50,IIIB strain of HIV-1; [16],34 nM
CC(C)=CCOc1cc(Nc2nccc3ccoc23)ccc1C#N [furopyridine 56b],IC50,MT-2 human T-cells; [15],91 nM
same,EC50,IIIB strain of HIV-1; [16],11 nM
"COc1ccnc(Nc2ccc(Cl)c(OCC=C(C)C)c2)n1 [Compound 42d, N-(4-Chloro-3-(3-methylbut-2-enyloxy)phenyl)-4-methoxypyrimidin-2-amine]",IC50,MT-2 human T-cells; [5],9000 nM
same,EC50,IIIB strain of HIV-1; [6],10 nM
"CC(C)=CCOc1cc(Nc2ncccn2)ccc1C#N [Compound 39h, N-(4-Cyano-3-(3-methylbut-2-enyloxy)phenyl)pyrimidin-2-amine]",IC50,MT-2 human T-cells; [5],< 200 nM
same,CC50,MT-2 human T-cells; [2],36 nM
same,EC50,IIIB strain of HIV-1; [14],17 nM
CCOc1ccnc(Nc2ccc(Cl)c(OCC=C(C)C)c2)n1 [Compound 9k],CC50,MT-2 human T-cells; [2],19000 nM
same,EC50,IIIB strain of HIV-1; [3],41 nM
"CC(C)=CCOc1cc(Nc2nccs2)ccc1C [Compound 4b, N-(4-methyl-3-(3-methylbut-2-enyloxy)phenylthiazol)-2-amine]",IC50,MT-2 human T-cells; [9],17000 nM
same,IC50,MT-2 human T-cells; [10],17000 nM
same,EC50,IIIB strain of HIV-1; [11],3000 nM
same,EC50,IIIB strain of HIV-1; [12],3000 nM
"CC(C)=CCOc1cc(Nc2nccs2)ccc1C(C)C [Compound 4g, N-(4-isopropyl-3-(3-methylbut-2-enyloxy)phenylthiazol)-2-amine]",IC50,MT-2 human T-cells; [9],23000 nM
same,EC50,IIIB strain of HIV-1; [11],23000 nM
CNc1ccnc(Nc2ccc(C#N)c(OCC=C(C)C)c2)n1 [Compound 10d],CC50,MT-2 human T-cells; [2],22 nM
same,EC50,IIIB strain of HIV-1; [3],5 nM
"CC(C)=CCOc1cc(Nc2ncccn2)ccc1Cl [Compound 39d, N-(4-Chloro-3-(3-methylbut-2-enyloxy)phenyl)pyrimidin-2-amine]",CC50,[1],2500 nM
same,IC50,MT-2 human T-cells; [5],2500 nM
same,IC50,"MT-2 human T-cells; Homo sapiens, MT2, Table 2a, cytotoxicity, MT-2 cells, read-out: IC50",< 200 nM
same,EC50,IIIB strain of HIV-1; [6],200 nM
"CC(C)=CCOc1cccc(Nc2nccs2)c1 [Compound 4a, N-(3-(3-methylbut-2-enyloxy)phenylthiazol)-2-amine]",IC50,MT-2 human T-cells; [9],23000 nM
same,EC50,IIIB strain of HIV-1; [11],10000 nM
COc1cc(OC)nc(Nc2ccc(C#N)c(OCC=C(C)C)c2)n1 [Compound 10h],CC50,MT-2 human T-cells; [2],810 nM
same,EC50,IIIB strain of HIV-1; [3],160 nM
CSc1ccnc(Nc2ccc(Cl)c(OCC=C(C)C)c2)n1 [Compound 48],IC50,MT-2 human T-cells; [10],2800 nM
same,EC50,IIIB strain of HIV-1; [12],180 nM
COc1cc(OC)nc(Nc2ccc(Cl)c(OCC=C(C)C)c2)n1 [Compound 9h],CC50,MT-2 human T-cells; [2],28000 nM
same,EC50,IIIB strain of HIV-1; [3],250 nM
CC(C)=CCOc1cc(Nc2nccc3cccn23)ccc1Cl [compound 59],IC50,MT-2 human T-cells; [7],17000 nM
same,EC50,IIIB strain of HIV-1; [8],130 nM
"CCC(C)=CCOc1cc(Nc2nccs2)ccc1C (mixture of isomers) [Compound 18b, (E/Z)-N-(4-methyl-3-(3-methylpent-2-enyloxy)phenyl)thiazol-2-amine]",IC50,"MT-2 human T-cells; Table 3, cytotoxicity, MT-2 cells, read-out: IC50",32000 nM
same,EC50,"IIIB strain of HIV-1; Table 3, thiazoles 18-23, N/A read as no activity, read-out: EC50",8000 nM
COc1nc(C)nc(Nc2ccc(Cl)c(OCC=C(C)C)c2)n1 [Compound 7g],CC50,MT-2 human T-cells; [2],12000 nM
same,EC50,IIIB strain of HIV-1; [3],100 nM

# Source: patent US9018209B2, “Compounds and methods for the treatment of viruses and cancer” (Yale University, priority 2005, dated 2015)
